{"source": "patent US6890950B2", "about": "“Lapachone delivery systems, compositions and uses related thereto” (priority 2002, dated 2005)", "key": {"NQO1− LNCaP cells": {"tested_on": "NQO1− LNCaP cells", "test": "radiosensitization, clonogenic survival", "format": "cell-based, human", "protocol": "(§1) FIG. 15. […] Changes in colony forming ability. In A, pcDNA3-vector alone cells were tested. In B, same as A, except that NQO1^+ LNCaP cells were used.\n(§2) To answer the question of whether NQO1 levels must be induced for β-lap radiosensitization, we examined NQO1^+ LNCaP NQC12 v. NQO1^− LNCaP-pcDNA3 vector alone cells for differences in radiosensitization by various concentrations of β-lap, given 4 h post-IR (FIG. 15)."}, "NQO1+ LNCaP NQCl2 cells": {"tested_on": "NQO1+ LNCaP NQCl2 cells", "test": "radiosensitization, clonogenic survival", "format": "cell-based, human", "settings": "β-lap given 4 h post-IR", "protocol": "as §1, §2"}, "[1]": {"tested_on": "MDA-MB-468 NQO1+ human breast cancer xenografts", "test": "antitumor activity against xenografts", "format": "in vivo, athymic nude mice", "settings": "for antitumor activity: 55-70 mg/kg i.p. every other day", "protocol": "Athymic nude mice bearing […] tumors were treated with the indicated mg/mk doses of β-lap i.p. every other day, beginning at day 26.\nWhen tumor volumes reached 20-30 mm^3 (at day 26), mice were then treated (by intraperitoneal injection) every other day with the indicated doses (in mg/kg) of β-lap (55-70 mg/kg were tested). […] Multiple cycles of treatments are now being tested, as are various dose regimen and scheduling protocols."}, "DU-145": {"tested_on": "DU-145", "test": "TUNEL apoptosis assay", "format": "cell-based, human", "settings": "10 μM, 4h, TUNEL 48h"}, "DU-145 cells": {"tested_on": "DU-145 cells", "test": "survival / lethality of CaP cells", "format": "cell-based, human"}, "PC-3 cells": {"tested_on": "PC-3 cells", "test": "survival / lethality of CaP cells", "format": "cell-based, human", "settings": "PC-3, absence of IR"}, "A549 NSCLC cells": {"tested_on": "A549 NSCLC cells", "test": "survival and apoptosis (PARP cleavage) of NSCLC cells", "format": "cell-based, human", "settings": "8 μM β-lap, 4 h", "text": "NQO1-dependent apoptosis of A549 or CC-10 NSCLC cells by β-lap."}, "[2]": {"test": "β-lap release from polymer millirods in PBS", "format": "physicochemical", "settings": "fabrication and controlled release"}, "[3]": {"test": "solubility of β-lap in PBS (orbital shaker, UV-Vis)", "format": "physicochemical", "settings": "37° C.", "protocol": "Fabrication of β-lap-loaded polymer millirods. The extremely low solubility of β-lap in water has greatly limited the clinical use of this compound. The development of drug-impregnated millirods, wherein β-lap release kinetics may be accurately permits the delivery of an efficacious form of therapy against human prostate tumors that commonly over-express the NQO1 oxidoreductase. The extinction coefficient for β-lap in water was determined to be 2.6×10^4 cm^−1M^−1 at 257 nm wavelength by UV-V is spectrophotometry. Solubility experiments were performed by immersing β-lap in PBS over a period of six days in an orbital shaker at 37° C. At the start of the experiment the drug suspension was sonicated for 20 seconds to facilitate the fast reach of solubility equilibrium. Samples were taken and filtered by 0.2 μm Millipore filters via syringe to remove non-dissolved drug particles and diluted to accommodate the UV-V is sensitive range before collecting absorbance data. […] This concentration is too low for i.v. administration in clinical applications. […] Polymer millirods were fabricated using a compression heat molding procedure as previously developed in our lab. (Halpert, B., Sheehan, E. and Schmalhorst, W. (1998) Cancer 82, 737-742.) Briefly, β-lap particles were mixed with polymer microspheres (4 μm) and various concentrations of glucose. […]"}}, "note": "“And” between values parts separate entries of the source, which are not always exact repeats. Identical values can stand only once. “Also recorded” adds a separate entry of the source.", "data": [{"smiles": "CC1(C)CCC2=C(O1)c1ccccc1C(=O)C2=O", "note": "[β-lap, β-Lapachone]", "values": [{"measurement": "radiosensitization", "setting": "NQO1− LNCaP cells", "value": "not sensitized"}, {"measurement": "radiosensitization", "setting": "NQO1+ LNCaP NQCl2 cells", "value": "radiosensitized"}, {"measurement": "antitumor activity", "setting": "[1]", "value": "significant antitumor responses; also recorded: Significant antitumor activity"}, {"measurement": "antitumor activity", "setting": "[1]; listed as β-Lap", "value": "significant antitumor activity"}, {"measurement": "antitumor responses", "setting": "[1]; 65 and 70 mg/kg i.p. every other day, 10 doses", "value": "Significant antitumor responses"}, {"measurement": "Apoptosis (%) After Drug Treatment", "setting": "DU-145; DU-145 + DC (50 μM dicoumarol)", "value": 0.12, "unit": "%"}, {"measurement": "Apoptosis (%) After Drug Treatment", "setting": "DU-145; DU-145 + DVED", "value": 76, "unit": "%"}, {"measurement": "Apoptosis (%) After Drug Treatment", "setting": "DU-145; DU-145", "value": 71, "unit": "%"}, {"measurement": "lethality", "setting": "DU-145 cells; DU-145, 4 μM β-lap", "value": "> 95", "unit": "%"}, {"measurement": "survival", "setting": "DU-145 cells; DU-145, 4 μM β-lap with 50 μM dicoumarol", "value": "> 95", "unit": "%"}, {"measurement": "sensitivity to β-lap", "setting": "DU-145 cells; DU-145, absence of IR", "value": "sensitive"}, {"measurement": "sensitivity to β-lap", "setting": "PC-3 cells", "value": "sensitive"}, {"measurement": "lethality and apoptosis", "setting": "A549 NSCLC cells", "value": "caused lethality and apoptosis"}, {"measurement": "structural integrity of released β-lap (UV-Vis spectra)", "setting": "[2]", "value": "maintained; also recorded: maintains its structural integrity"}, {"measurement": "solubility of β-lap in PBS buffer", "setting": "[3]", "value": "2.6×10^−4 M and 0.05 mg/cc"}]}]}
